Source: the NIST ThermoML archive (doi:10.1021/je700260f)

Conditions: 313.15 K, Liquid, Vibrating tube method

FC(C(F)(F)F)C(F)(F)F [1,1,1,2,3,3,3-heptafluoropropane]
Conditions | mass density [kg/m3]
2851 kPa | 1343.2
2872 kPa | 1343.4
2905 kPa | 1343.7
2928 kPa | 1343.9
2959 kPa | 1344.2
2986 kPa | 1344.4
3012 kPa | 1344.6
3042 kPa | 1345
3072 kPa | 1345.3
3095 kPa | 1345.4
3298 kPa | 1347.3
3325 kPa | 1347.5
3356 kPa | 1347.8
3379 kPa | 1348
3402 kPa | 1348.2
3437 kPa | 1348.6
3464 kPa | 1348.7
3491 kPa | 1349.1
3518 kPa | 1349.3
3548 kPa | 1349.5
3572 kPa | 1349.7
3603 kPa | 1350.1
3625 kPa | 1350.2
3656 kPa | 1350.5
3679 kPa | 1350.7
3702 kPa | 1350.9
3737 kPa | 1351.2
3761 kPa | 1351.4
3794 kPa | 1351.7
3822 kPa | 1352
3858 kPa | 1352.3
3898 kPa | 1352.7
3926 kPa | 1352.9
3954 kPa | 1353.2
3982 kPa | 1353.4
4018 kPa | 1353.5
4043 kPa | 1353.9
4079 kPa | 1354.3
4110 kPa | 1354.6
4134 kPa | 1354.8
4167 kPa | 1355
4208 kPa | 1355.4
4360 kPa | 1356.6
4382 kPa | 1356.8
4410 kPa | 1357
4435 kPa | 1357.3
4463 kPa | 1357.5
4732 kPa | 1359.7
4757 kPa | 1360
4793 kPa | 1360.1
4811 kPa | 1360.4
4847 kPa | 1360.6
4872 kPa | 1360.9
4904 kPa | 1361.1
4929 kPa | 1361.5
4958 kPa | 1361.6
4976 kPa | 1361.7
5023 kPa | 1362.3
5048 kPa | 1362.3
5074 kPa | 1362.5
5096 kPa | 1362.7
5125 kPa | 1363.1
5148 kPa | 1363.1
5167 kPa | 1363.4
5200 kPa | 1363.6
5222 kPa | 1363.9
5259 kPa | 1364
5281 kPa | 1364.2
5308 kPa | 1364.4
5330 kPa | 1364.6
5357 kPa | 1364.8
5383 kPa | 1365.1
5409 kPa | 1365.3
5434 kPa | 1365.4
5457 kPa | 1365.7
5485 kPa | 1365.9
5508 kPa | 1366.1
5534 kPa | 1366.3
5560 kPa | 1366.5
5593 kPa | 1366.7
5616 kPa | 1366.9
5646 kPa | 1367.1
5672 kPa | 1367.3
5694 kPa | 1367.6
5717 kPa | 1367.8
5739 kPa | 1367.9
5766 kPa | 1368
5801 kPa | 1368.3
5828 kPa | 1368.5
5847 kPa | 1368.7
5870 kPa | 1368.9
5901 kPa | 1369.2
5932 kPa | 1369.4
5959 kPa | 1369.7
5987 kPa | 1369.8
6022 kPa | 1370
6049 kPa | 1370.4
6073 kPa | 1370.5
6096 kPa | 1370.6
6128 kPa | 1370.8
6163 kPa | 1371.1
6406 kPa | 1372.9
6434 kPa | 1373
